# Laboratory results: patent US20200131249A1, “NOVEL PROTEINS AND USE THEREOF” (EVOLVERITAS KFT., priority 2017, published 2020)
# Where no end group is shown, it is not given here.
# Assays:
# lectin pathway = test: Lectin pathway activation tests in rat serum, all three assays (C3, C4, C5b-9 deposition); assay type: biochemical; conditions: result in words
# Description: ELISA-based complement lectin pathway activation tests were performed on mannan coated plates using diluted individual (not pooled) rat serum. In these tests, inhibitory efficiencies of the protein of SEQ ID NO: 14 and SGMI-2 were compared. Three different assays were conducted that detect the deposition of C3, C4 or the terminal complement antigen C5b-9, respectively.
# 96-well Greiner high binding ELISA plates (cat. no. 655061) were coated with 100 μl/well 10 μg/ml mannan dissolved in coating buffer (50 mM sodium-carbonate pH 9.6) overnight at 4° C. Control wells contained coating buffer alone. Wells were blocked for at least 1 h at 37° C. with 200 μl/well
# 10 mg/ml bovine serum albumin (BSA) dissolved in 50 mM Tris pH 7.4, 150 mM NaCl, 0.1% Tween-20 buffer. Serial dilutions of the inhibitors were made in 10 mM HEPES pH 7.4, 150 mM NaCl, 5 mM CaCl2, 5 mM MgCl2, 0.1% Tween-20 buffer (serum dilution buffer). Rat serum was thawed on ice and diluted 35-fold in serum dilution buffer. […]
# 50 mM Tris pH 7.4, 150 mM NaCl, 5 mM CaCl2, 0.1% Tween-20 buffer (washing buffer) and 100 μl of the serum-inhibitor samples were transferred onto the plate. […] The 490 nm absorbance values were recorded using a PerkinElmer EnSpire multimode plate reader. Four parallels were measured for each data point. […]
# alternative pathway = test: C3 deposition ELISA with rat serum on LPS coated plates; assay type: biochemical; conditions: final concentrations as high as 50 μM; 6-fold diluted rat serum
# Description: ELISA-based complement classical and alternative pathway activation tests were performed on IgG or lipopolysaccharide (LPS) coated plates, respectively, using diluted individual (not pooled) rat serum. In these tests, inhibitory efficiencies of the protein of SEQ ID NO: 14 and SGMI-2 were compared and C3 deposition was used for quantification of the complement activation.
# The buffers, incubation times, incubation temperatures and antibodies were the same as described in point 4.5.1.
# The final dilution of the rat serum was 6-fold. The dilution of the primary antibody was 3000-fold.
Substance,inhibition of the lectin pathway in rat serum (lectin pathway),inhibition of the alternative pathway in rat serum (alternative pathway)
SEQ ID NO: 14: TFPI-D2 variant protein with inhibitor loop PCRAVKR (SEQ ID NO: 4) (KPDFCFLEEDPGPCRAVKRRYFYNNQTKQCERFKYGGCLGNMNNFETLEECKNICEDG; ends and bridges not checked; cysteine pairing not given here),completely inhibit,neither the protein of SEQ ID NO: 14 nor SGMI-2 were able to inhibit
SGMI-2 (GSGEVTCEPGTTFKDKCNTCRCGSDGKSAVCTKLWCNQ; Synthetic protein of insect origin) [reference compound],completely inhibit,neither the protein of SEQ ID NO: 14 nor SGMI-2 were able to inhibit
